Results from US5204311A, “Ethanediimidic acid bis[(arylalkylidene)hydrazide] color-formers” (Minnesota Mining and Manufacturing Company, priority 1991, dated 1993).

Tests used:
[1] = Color (Hunter coordinates) of Ni complex, swabbed on Ni-coated receptor (CF) sheet; format: physicochemical; parameters: key to Hunter coordinate a / Hunter Coordinates a: Hunter a: +a red, -a green; key to Hunter coordinate b / Hunter Coordinates b: Hunter b: +b yellow, -b blue; conditions: for Chroma: C=(a^2 +b^2)^1/2; for Chroma / Image Color / Hunter Coordinates L / Hunter Coordinates a / Hunter Coordinates b: Ni(II) complex; for Chroma / Image Color: swab concn. 1% (Table 2); for Hunter Coordinates L / Hunter Coordinates a / Hunter Coordinates b: swab concn. 1%, 45°/0° reflectance, illuminant C (Table 2)
Procedure: In general, the colors of the complexes, as listed in Table 2 and Experiments 4, 6, and 7 below, were determined by preparing a 1% solution of the color-former or mixture of color-formers in an appropriate solvent. Unless otherwise indicated, the solvent was composed of a mixture of tributyl phosphate (26.5%), diethyl phthalate (17.6%), and cyclohexane (55.9%). The images were formed by applying two stripes of the solution to a substrate coated with a Ni^2+ coated receptor sheet using a cotton tipped applicator swab. Rapid and complete development of the image was achieved by passing the sheet through a hot shoe adjusted to 102° C., making a revolution every 10 seconds. The visually observed colors were measured and recorded.
One method of color measurement is to determine the color's position in color space. One color space system is the Hunter System; see F. W. Billmeyer, Jr., and M. Saltzman, Principles of Color Technology; John Wiley & Sons; New York, N.Y.; Ch. 2 & 3, 1981. In this system three mutually perpendicular axes (L, a, and b) are needed to define a color. "L" (+z axis) represents the lightness or darkness of the image; "a" (x axis) represents the amount of red or green (+a is red, -a is green); and "b" (y axis) represents the amount of yellow or blue (+b is yellow, -b is blue). By measuring a material's L, a, and b values, the color of one sample can be compared with that of other samples. Another value used in the Hunter System is Chroma (C). Chroma is defined by the equation [C=(a^2 +b^2)^1/2 ] and represents the distance of the image coordinates from the origin. The greater the Chroma, the more intense the image. Chroma is used to compare images cf the same hue. Because the color of a sample is also dependent upon the color temperature of the illuminating source, the angle at which the sample is illuminated, the angle at which the illumination is reflected, and the angle of the retina illuminated, these all need to be specified. Many instruments have been developed to record these values. One such instrument is the HunterLab LabScan II. This instrument is capable of automatically determining the L, a, and b values for a given sample, and was used for the following examples.
The L, a, and b color coordinates of the more uniform stripe were measured for 45°/0° reflectance on a HunterLab LabScan II, secondary observer, using illuminant C. The observed (image) color and the Hunter coordinates for Ni^2+ complexes of the yellow color-formers of this invention are given in Table 2.
A 1% solution of the condensation product in the encapsulation fill mix was swabbed onto a carbonless paper CF sheet (sold by the 3M Co. St. Paul, Minn.) with a cotton swab. The reflectance spectra had Hunter coordinates of: […]

[2] = Solubility in capsule fill solvents; format: physicochemical; conditions: for Dye Solubility: 4320 min
Procedure: The encapsulation process requires the color-forming ligand be dissolved in a solvent or mixed solvents, because of the nature of the procedure. Formation of a microcapsule shell as by condensation of urea or melamine with an aldehyde such as formaldehyde or mixtures of aldehydes to form the capsule shell is carried out in an acidic aqueous medium and the color-former solution must be insoluble and unreactive to these reagents for the encapsulation to proceed. Solvents commonly used include tributyl phosphate, diethyl phthalate, and cyclohexane. […] As mentioned above, solubility of yellow color-formers exemplified by structure I in nonaqueous solvents such as those used in the encapsulation process may be increased by substituting alkyl, aryl, aralkyl, alkenyl, or such groups for the hydrogens on the various positions available in the structure I above.
(§1) This color observed on the CF sheet was yellow. […] Solubility in a solvent blend of tributyl phosphate, diethyl phthalate and cyclohexane (capsule solvents for preparing carbonless copy-paper) was >9% by weight. Thus the ligand is eminently suitable for encapsulation. The ligand is not volatile at 71 ° C. overnight.
Solubility in a solvent blend of tributyl phosphate, diethyl phthalate and cyclohexane (capsule solvents for preparing carbonless copy-paper) was 3% by weight. Thus the ligand is eminently suitable for encapsulation. The ligand is not volatile at 71 ° C. overnight.
*THE SOLUBILITY WAS DEEMED PREFERABLE IF IT WAS GREATER THAN 2% IN THE
FILL MIX AT ROOM TEMPERATURE FOR 3 DAYS. THE FILL MIX COMPRISED
TRIBUTYLPHOSPHATE (26.5%); DIETHYLPHTHALATE (17.6%); AND CYCLOHEXANE

[3] = Imaging of CB sheet with encapsulated color-former on Ni-coated CF sheet; format: physicochemical; conditions: carbonless paper capsules
Procedure: A precondensate solution was prepared comprising 192 g of formalin, 0.63 g of potassium tetraborate, 72 g of urea, and 328 g of soft water. The formalin was 37% formaldehyde and was added to a 1-liter flask equipped with a stirrer and heating mantle. The potassium tetraborate and urea were then added, and the mixture was heated to 70° C. The reaction was maintained at that temperature for 2.5-3.0 hr. The reaction mixture was then diluted with the water and allowed to cool. The precondensate solution, with about 24% solids, was then ready for use in the encapsulation process.
The precondensate and fill (ethanediimidic acid bis[hydrazide] and carrier or fill solvents) were combined to make capsules according to the following procedure. Sodium chloride (29.54 g) was added to the stirred precondensate solution and the temperature of the solution was adjusted to 20° C. The fill material (215 g) was added and full agitation was begun. After 5 minutes of stirring, 10% hydrochloric acid solution was added over 5 minutes in an amount such that the final pH of the reaction mixture was about 2.8. The reaction mixture was stirred for another 12 minutes. More of the 10% hydrochloric acid solution was added over a period of 12 minutes, in an amount such that the final pH of the solution was about […]. The reaction mixture was stirred at 20° C. for 1 hr, and then at 60° C. for 1-3 hr. The acidic solution was allowed to cool and adjusted to a pH of 7 by addition of concentrated ammonium hydroxide solution (28%). The capsule slurry could then be stored for later use.
The capsule slurry (10 g) was added to 65 g of a 1.5% aqueous sodium alginate solution. The mixture was applied to a coated paper using a bar coater with a 3 mil gap. The coating was allowed to dry at room temperature.
A 2% solution of the compound 1 in the capsule fill solvent of diethyl phthalate, tributyl phosphate, and cyclohexane was encapsulated by the procedure described in Experiment 5 above. A coating mixture of 10.0 g of capsule slurry, 2.5 g of Dow-620 butadiene-styrene latex, and 62.5 g of 1.5% sodium alginate slurry was coated onto paper by the draw down procedure described above.
A 7.5% solution comprising 5.45% N-(5-octanoylamido-2-metylpentyl)dithiooxamide/N-(5-octanoylamido-4-methylpentyl)dithiooxamide (G') mixture and 2.05% N,N'-di(5-octanoylamido-2-methylpentyl)dithiooxamide/N-(5-octanoylamido-2- methylpentyl)-N'-(5-octanoylamido-4-methylpentyl)dithiooxamide/N,N'-(5-octanoylamido-2-methylpentyl)dithiooxamide (G) mixture in the fill solvent mixture of diethyl phthalate, tributyl phosphate, and cyclohexanone was encapsulated by the procedure described above. A coating mixture of 10.0 g of capsule slurry, 2.5 g of Dow 620 styrene-butadiene latex, and 62.5 g of 1.5% sodium alginate solution was coated onto paper by the draw down procedure described in Experiment 5 above.
A blend was prepared of 10 g of the capsule slurry containing compound 1, with 10 g of capsule slurry containing 5.45% N-(5-octanoylamido-2-methylpentyl)dithiooxamide/N-(5-octanoylamido-4-methylpentyl)dithiooxamide (G') mixture and 2.05% N,N'-di(5-octanoylamido-2-methylpentyl)dithiooxamide/N-(5-octanoylamido-2- methylpentyl)-N'-(5-octanoylamido-4-methylpentyl)dithiooxamide/N,N'-di(5-octanoylamido-4-methylpentyl)dithiooxamide (G) mixture. […]

[4] = Stability in concentrated hydrochloric acid; format: physicochemical
[5] = Color formation with zinc salts (zinc rosinate); format: physicochemical
Procedure: as §1
This color observed on the CF sheet was yellow.

[6] = Volatility: transfer from simulated donor sheet to receptor sheet; format: physicochemical; conditions: 71 ° C. overnight
Description: The method utilized in the experiments to both define and evaluate the level of volatility was as follows. A single sheet piece of Grade #10 (20×12 cm) cheesecloth (AF & F., Item No. 588033, American Fiber and Finishing, Inc., Burlington, Mass.) was placed between a simulated donor sheet and a receptor sheet of a carbonless paper construction. The simulated donor sheet comprised a sheet of paper saturated with color-former of structure I, which was used to simulate a CB sheet with ruptured capsules. Pressure was then applied for 24 hours by placing 9 pounds of paper on top of the sheets, to simulate storage conditions of the paper packages. The formation of color on the receptor sheet, due to transfer of volatile color-former thereto, was used as an indication that the particular color-former was less than optimally desirable for carbonless paper constructions, i.e., was volatile. A compound was considered generally to be nonvolatile, within the meaning of the term as used herein to define the present invention and thus to define color-formers most acceptable for use in carbonless image transfer arrangements, if no color was formed after the simulated test was run for about 24 hours at 25° C. In some instances, if no color was formed after storage at room temperature (25° C.), successively higher temperatures were used, as for example 49° C., 60° C., and 71° C. […]

[7] = background art; cited from earlier work
[8] = 1% solution in encapsulation fill mix swabbed onto 3M CF sheet (Experiments 2, 3)

Row | Chroma [1] | Image Color [1] | Hunter Coordinates L [1] | Hunter Coordinates a [1] | Hunter Coordinates b [1] | Dye Solubility [2] [%] | color developed upon imaging [3] | stability in concentrated hydrochloric acid [4] | color formation when reacted with zinc rosinate [5] | Hunter coordinate L [1, 8] | Hunter coordinate a [1, 8] | Hunter coordinate b [1, 8] | color observed on the CF sheet ([1]; 1% solution swabbed (Experiments 2, 3)) | Solubility in a solvent blend of tributyl phosphate, diethyl phthalate and cyclohexane [2] [% by weight] | volatility [6] | SMILES | solubility in encapsulation / capsule solvents (in words) [2] | image color with metal [7]
1 | 40.7 | Yellow | 84.5 | -9.7 | 39.5 | < 2.0 | weak and often unacceptable | – | – | – | – | – | – | – | – | NC(=NN=Cc1ccccc1O)C(N)=NN=Cc1ccccc1O [Compound 9, Ethanediimidic acid bis[(2-hydroxyphenylmethylene)hydrazide]] | too low in the solvent blend used in many carbonless paper capsules | –
2 | 41.6 | Yellow | 82.5 | -6.6 | 41.0 | > 3.0 | – | stable | does not form color | 82.5 | -6.64 | 41.0 | yellow | 3 | not volatile | C=CCc1cccc(C=NN=C(N)C(N)=NN=Cc2cccc(CC=C)c2O)c1O [Compound 16, ethanediimidic acid bis[(3-allylsalicylidene)hydrazide]] | good solubility in capsule solvents | –
3 | – | – | – | – | – | – | – | – | – | – | – | – | – | – | – | S=C(NCc1ccccc1)C(=S)NCc1ccccc1 [H, N,N'-di(benzyl)dithiooxamide] | – | blue-purple
